Assay [1] has as its target T1, KRAS-WT and SOS1 proteins (Homo sapiens, UniProt Q07889).
T1 construct: purchased Cisbio 63ADK000CB15PEG
T1 sequence (Q07889 1-1333): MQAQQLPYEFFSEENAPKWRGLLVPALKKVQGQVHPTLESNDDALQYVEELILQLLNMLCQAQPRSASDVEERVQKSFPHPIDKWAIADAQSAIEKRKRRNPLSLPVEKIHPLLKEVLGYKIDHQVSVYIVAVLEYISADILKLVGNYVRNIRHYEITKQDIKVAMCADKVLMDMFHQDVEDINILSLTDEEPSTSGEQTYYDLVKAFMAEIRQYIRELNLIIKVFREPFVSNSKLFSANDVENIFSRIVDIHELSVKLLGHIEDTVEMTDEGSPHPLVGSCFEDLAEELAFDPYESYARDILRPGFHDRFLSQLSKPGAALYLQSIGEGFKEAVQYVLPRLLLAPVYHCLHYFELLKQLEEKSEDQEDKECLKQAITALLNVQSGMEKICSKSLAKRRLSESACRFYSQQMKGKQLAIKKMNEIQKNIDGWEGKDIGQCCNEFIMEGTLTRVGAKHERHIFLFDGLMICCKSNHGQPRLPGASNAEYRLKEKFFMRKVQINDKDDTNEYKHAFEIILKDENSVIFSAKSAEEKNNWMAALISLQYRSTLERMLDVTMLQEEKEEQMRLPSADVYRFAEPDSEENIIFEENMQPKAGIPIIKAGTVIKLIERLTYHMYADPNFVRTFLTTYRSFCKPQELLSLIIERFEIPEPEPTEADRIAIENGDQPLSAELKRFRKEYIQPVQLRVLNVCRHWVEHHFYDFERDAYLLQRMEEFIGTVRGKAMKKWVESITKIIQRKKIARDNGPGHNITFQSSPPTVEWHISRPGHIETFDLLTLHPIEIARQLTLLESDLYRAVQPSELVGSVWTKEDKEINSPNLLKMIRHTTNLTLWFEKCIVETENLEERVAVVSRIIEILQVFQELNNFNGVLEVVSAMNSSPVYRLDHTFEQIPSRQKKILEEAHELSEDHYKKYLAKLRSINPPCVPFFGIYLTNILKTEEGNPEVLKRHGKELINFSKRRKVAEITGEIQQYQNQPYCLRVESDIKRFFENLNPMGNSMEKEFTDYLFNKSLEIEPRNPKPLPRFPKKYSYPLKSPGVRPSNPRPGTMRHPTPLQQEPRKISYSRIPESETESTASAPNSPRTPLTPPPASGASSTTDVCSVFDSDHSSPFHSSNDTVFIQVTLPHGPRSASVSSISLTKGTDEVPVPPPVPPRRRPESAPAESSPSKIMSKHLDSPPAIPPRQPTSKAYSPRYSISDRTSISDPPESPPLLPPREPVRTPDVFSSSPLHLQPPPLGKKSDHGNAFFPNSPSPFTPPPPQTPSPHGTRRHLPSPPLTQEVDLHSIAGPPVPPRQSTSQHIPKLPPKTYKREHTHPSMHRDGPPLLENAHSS
The assay is described as follows: KRAS-WT/SOS1 binding assay (HTRF). The settings on record: Tag1-SOS1 / Tag2-KRAS-WT, 10 μM GTP, read-out: Activity Data in Kras: SOS1 Assay, Wild Type. The method, then: (§1) KRAS-WT (or G12C/G12D/G12V)/SOS1 Binding Assay
(§2) Low IC50 values are indicative of high potency of the SOS1 inhibitor compounds in this assay setting.
(§3) The KRAS-WT (or G12C/G12D/G12V)/SOS1 binding assay is performed using an assay kit (Cisbio, Cat #63ADK000CB15PEG or 63ADK000CB16PEG/63ADK000CB17PEG/63ADK000CB18PEG) according to the procedure recommended by the manufacturer. • 1) Thaw and prepare the working solution of Tag1-SOS1 protein and Tag2-KRAS-WT (or G12C/G12D/G12V) protein with final concentration of 10 μM GTP (Sigma, Cat #V900868). • 2) Thaw and prepare the working solution of anti-Tag1-Tb^3+ anti-Tag2-XL665. • 3) Dispense 2 μL of serially diluted compound, 4 μL of Tag1-SOS1 protein and 4 μL of Tag2-KRAS-WT (or G12C/G12D/G12V) protein with GTP into a ProxiPlate-384 Plus, white 384-shallow well microplate (PerkinElmer, Cat #6008280). • 4) Incubate the plate for 15 minutes at room temperature. • 5) Dispense 10 μL of pre-mixed anti-Tag1-Tb^3+ and anti-Tag2-XL665 into the plate. • 6) Seal the plate and incubate for 2 hours at room temperature. • 7) Remove the plate sealer and read on PHERAstar FS (BMG LABTECH, PHERAstar FS). • 8) Calculate the ratio of the acceptor and donor emission signals for each individual well using the following equation.
(§4) [formula] • 9) IC50 values are fitted and calculated by HTRF signal values and log of compound concentrations to nonlinear regression [Log (inhibitor) vs. Response−Variable Slope (four parameters)] using the GraphPad Prism 8.0.

Assay [2] deals with T2, KRAS G12D and SOS1 proteins (Homo sapiens, UniProt Q07889).
T2 construct: purchased Cisbio 63ADK000CB17PEG
T2 sequence (Q07889 1-1333): T1 sequence (Q07889 1-1333)
The assay is described as follows: KRAS-G12D/SOS1 binding assay (HTRF). Particulars: Tag1-SOS1 / Tag2-KRAS G12D, 10 μM GTP. The method, then: as §1, §2, §3, §4
A general note: TR-FRET usually uses a lanthanide donor and a delayed reading to cut background.

This is an account of results in patent US20240109891A1, “NOVEL SUBSTITUTED TRICYCLIC AZA-HETEROCYCLES AS SOS1 INHIBITORS” (Viva Star Biosciences (Suzhou) Co., Ltd., priority 2021, published 2024).

Some results are limits rather than exact numbers.

Take `Cc1nc(N[C@H](C)c2cccc3c2CCC3(F)F)c2cc(-c3ccc(=O)n(C)c3)c3c(cnn3C)c2n1` [Example 25, (R)-5-(4-((1-(1,1-difluoro-2,3-dihydro-1H-inden-4-yl)ethyl)amino)-2,7-dimethyl-7H-pyrazolo[3,4-h]quinazolin-6-yl)-1-methylpyridin-2(1H)-one]: the IC50 in assay [1] and in assay [2] was less than 100 nM each time.

For `C[C@@H](Nc1nc(C(F)(F)F)nc2c1cc(-c1ccc(=O)n(C)c1)c1c2cnn1C)c1cc(F)cc(C(F)(F)CO)c1` [Example 33, (R)-5-(4-((1-(3-(1,1-difluoro-2-hydroxyethyl)-5-fluorophenyl)ethyl)amino)-7-methyl-2-(trifluoromethyl)-7H-pyrazolo[3,4-h]quinazolin-6-yl)-1-methylpyridin-2(1H)-one], the IC50 in assay [1] and in assay [2] was 100 to 500 nM in each case.

Consider `C[C@@H](Nc1nc2c(F)cnn2c2cc(=O)n(C3CC(F)(F)C3)cc12)c1cccc(C(F)(F)CO)c1` [Example 78, (R)-5-((1-(3-(1,1-difluoro-2-hydroxyethyl)phenyl)ethyl)amino)-7-(3,3-difluorocyclobutyl)-3-fluoropyrazolo[1,5-a]pyrido[3,4-e]pyrimidin-8(7H)-one], for which the IC50 in assay [1] and in assay [2] was less than 100 nM each time.

Regarding `C[C@@H](Nc1nc2ccnn2c2cc(=O)n(C3(C)CC3)cc12)c1cccc(C(F)(F)CO)c1` [Example 61, (R)-5-((1-(3-(1,1-difluoro-2-hydroxyethyl)phenyl)ethyl)amino)-7-(1-methylcyclopropyl)pyrazolo[1,5-a]pyrido[3,4-e]pyrimidin-8(7H)-one], the IC50 in assay [1] and in assay [2] was less than 100 nM in each case.

On to `COc1cc2c(cc1O[C@H]1CCOC1)c(N[C@H](C)c1cccc(C(F)(F)F)c1)nc1ccnn12` [Example 54, 8-methoxy-7-[(3 S)-oxolan-3-yloxy]-N-[(1R)-1-[3-(trifluoromethyl)phenyl]ethyl]pyrazolo[1,5-α]quinazolin-5-amine], for which the IC50 in assay [1] and in assay [2] was 500 to 5000 nM throughout.

For `COc1cc2c(cc1C1CCN(S(C)(=O)=O)CC1)c(N[C@H](C)c1cccc3c1CCC3(F)F)nc1ccnn12` [Example 53, (R)-N-(1-(1,1-difluoro-2,3-dihydro-1H-inden-4-yl)ethyl)-8-methoxy-7-(1-(methylsulfonyl)piperidin-4-yl)pyrazolo[1,5-a]quinazolin-5-amine], the IC50 in assay [1] and in assay [2] was 100 to 500 nM each time.

For `COc1cc2c(cc1O[C@H]1CCOC1)c(N[C@H](C)c1cc(N)cc(C(F)(F)F)c1)nc1ccnn12` [Example 55, N-[(1R)-1-[3-amino-5-(trifluoromethyl)phenyl]ethyl]-8-methoxy-7-[(3S)-oxolan-3-yloxy]pyrazolo[1,5-a]quinazolin-5-amine], the IC50 in assay [1] and in assay [2] was 100 to 500 nM throughout.

With `Cc1nc(N[C@H](C)c2cc(N)cc(C(F)(F)F)c2)c2cc(O[C@H]3CCOC3)c3c(cnn3C)c2n1` [Example 37, N-((R)-1-(3-amino-5-(trifluoromethyl)phenyl)ethyl)-2,7-dimethyl-6-(((S)-tetrahydrofuran-3-yl)oxy)-7H-pyrazolo[3,4-h]quinazolin-4-amine], the IC50 in assay [1] and in assay [2] was less than 100 nM throughout.

Regarding `Cc1nc(N[C@H](C)c2cccc(C(F)(F)CO)c2)c2cc(O[C@H]3CCOC3)c3nncn3c2n1` [Example 20, 2,2-difluoro-2-(3-((R)-1-((2-methyl-6-(((S)-tetrahydrofuran-3-yl)oxy)-[1,2,4]triazolo[4′,3′:1,6]pyrido[2,3-d]pyrimidin-4-yl)amino)ethyl)phenyl)ethan-1-ol], the IC50 in assay [1] was less than 100 nM; in assay [2], 100 to 500 nM.

As to `COc1cc2c(cc1C1CCN(C(C)=O)CC1)c(N[C@H](C)c1cccc3c1CCC3(F)F)nc1ccnn12` [Example 52, (R)-1-(4-(5-((1-(1,1-difluoro-2,3-dihydro-1H-inden-4-yl)ethyl)amino)-8-methoxypyrazolo[1,5-a]quinazolin-7-yl)piperidin-1-yl)ethanone], the IC50 in assay [1] and in assay [2] was 100 to 500 nM throughout.

For `CC(=O)N1CCC(c2cc3c(N[C@H](C)c4cccc(C(F)(F)F)c4)nc(C)nc3n3cnnc23)CC1` [Example 9, (R)-1-(4-(2-methyl-4-((1-(3-(trifluoromethyl)phenyl)ethyl)amino)-[1,2,4]triazolo[4′,3′:1,6]pyrido[2,3-d]pyrimidin-6-yl)piperidin-1-yl)ethan-1-one], the IC50 in assay [1] and in assay [2] was less than 100 nM throughout.

As for `Cc1c([C@@H](C)Nc2nc3ccnn3c3cc(=O)n(C4(C)CC4)cc23)cccc1C(F)(F)F` [Example 63, (R)-5-((1-(2-methyl-3-(trifluoromethyl)phenyl)ethyl)amino)-7-(1-methylcyclopropyl)pyrazolo[1,5-a]pyrido[3,4-e]pyrimidin-8(7H)-one], the IC50 in assay [1] and in assay [2] was less than 100 nM in each case.

Regarding `CC(=O)N1CCC(c2cc3c(N[C@H](C)c4cc(C(C)(C)O)cc(C(F)(F)F)c4)nc(C)nc3n3cnnc23)CC1` [Example 13, (R)-1-(4-(4-((1-(3-(2-hydroxypropan-2-yl)-5-(trifluoromethyl)phenyl)ethyl)amino)-2-methyl-[1,2,4]triazolo[4′,3′:1,6]pyrido[2,3-d]pyrimidin-6-yl)piperidin-1-yl)ethan-1-one], the IC50 in assay [1] and in assay [2] was greater than 5000 nM throughout.

For `COc1cc2c(cc1O[C@H]1CCOC1)c(N[C@H](C)c1cccc(C(F)(F)F)c1)nc1nccn12` [Example 58, 8-methoxy-7-(((S)-tetrahydrofuran-3-yl)oxy)-N—((R)-1-(3-(trifluoromethyl)phenyl)ethyl)imidazo[1,2-a]quinazolin-5-amine], the IC50 in assay [1] and in assay [2] was less than 100 nM each time.

In the case of `Cc1nc(N[C@H](C)c2cccc(C(F)(F)CO)c2)c2cc(O[C@H]3CCN(C)C3)c3c(cnn3C)c2n1` [Example 41, 2-(3-((R)-1-((2,7-dimethyl-6-(((S)-1-methylpyrrolidin-3-yl)oxy)-7H-pyrazolo[3,4-h]quinazolin-4-yl)amino)ethyl)phenyl)-2,2-difluoroethan-1-ol], the IC50 in assay [1] and in assay [2] was less than 100 nM in each case.

For the molecule `Cc1nc(N[C@H](C)c2cccc(C(F)(F)CO)c2)c2cc(O[C@H]3CCN(C)C3)c3nncn3c2n1` [Example 22, 2,2-difluoro-2-(3-((R)-1-((2-methyl-6-(((S)-1-methylpyrrolidin-3-yl)oxy)-[1,2,4]triazolo[4′,3′:1,6]pyrido[2,3-d]pyrimidin-4-yl)amino)ethyl)phenyl)ethan-1-ol], the IC50 in assay [1] and in assay [2] was less than 100 nM throughout.
